The NIST ThermoML archive (doi:10.1016/j.jct.2008.10.013)
± gives the expanded uncertainty stated by the source.

Details: 298.15 K; 101.33 kPa; Liquid; Vibrating tube method

| SMILES | mass density |
| --- | --- |
| CCO [ethanol] | 785.24 ± 0.19 kg/m3 |
| C=C(C)[C@H]1CC=C(C)CC1 [(R)-1-methyl-4-(1-methylethenyl)cyclohexene] | 837.31 ± 0.31 kg/m3 |
| CO [methanol] | 786.62 ± 0.17 kg/m3 |
